Consider 32 compounds from paper PMC7271668 (Frontiers in Pharmacology, 2020).

Usually Km stands for the substrate concentration at which the rate is half of its maximum. The term IC50 denotes the concentration that gives 50% inhibition. A higher IC50 goes with weaker potency.

Values joined by “and” are separate entries in the source; they are usually repeats but may differ in a detail not shown here. Equal values may be shown once.

Tested on in the first data set: not given
Assay: not given
The settings on record: after enalapril administration; ref Li et al., 2017; cited from earlier work.
For the compound `CCOC(=O)[C@H](CCc1ccccc1)N[C@@H](C)C(=O)N1CCC[C@H]1C(=O)O` [Enalapril], the “Plasma exposure, fold lower than that of enalaprilat” value is on record as “about 4.5 fold”.

The same data set, now with this note: after oral administration of enalapril; ref Ulm et al., 1982; MacFadyen et al., 1993; cited from earlier work.
On to `CCOC(=O)[C@H](CCc1ccccc1)N[C@@H](C)C(=O)N1CCC[C@H]1C(=O)O` [Enalapril], for which the “Excreted into the urine, % of the dose” value was 18 % of the dose.

Still in this data set, the particulars now being: oral enalapril, dose 10 mg, man; ref Ulm et al., 1982; cited from earlier work.
On to `CCOC(=O)[C@H](CCc1ccccc1)N[C@@H](C)C(=O)N1CCC[C@H]1C(=O)O` [Enalapril], for which the “Fraction of the dose converted to enalaprilat” value is “about 40%”.

A further data set relates to OAT3.
Assay: not given
The settings on record: cited from earlier work.
As to `C=C1CC23CCC4C(C)(C(=O)OC5OC(C(=O)O)C(O)C(O)C5O)CCCC4(C)C2CCC1(O)C3` (stereo not shown) [steviol acyl glucuronide], the Km was 368 µM.

The data set is the same for the next values; noted with them: read-out: Km as OAT3 substrate; ref Cutler et al., 2012; cited from earlier work.
For `O=S(=O)(O)CCS` [mesna], the Km was 390 µM.

Still in this data set, the particulars now being: read-out: Km as OAT3 substrate; ref Parvez et al., 2018; cited from earlier work.
Regarding `NNC(=O)c1ccncc1` [isoniazid], the Km is 234 µM.

In a further data set the target is T1, human OAT3 (Homo sapiens, UniProt Q8TCC7).
T1 sequence (Q8TCC7 1-542): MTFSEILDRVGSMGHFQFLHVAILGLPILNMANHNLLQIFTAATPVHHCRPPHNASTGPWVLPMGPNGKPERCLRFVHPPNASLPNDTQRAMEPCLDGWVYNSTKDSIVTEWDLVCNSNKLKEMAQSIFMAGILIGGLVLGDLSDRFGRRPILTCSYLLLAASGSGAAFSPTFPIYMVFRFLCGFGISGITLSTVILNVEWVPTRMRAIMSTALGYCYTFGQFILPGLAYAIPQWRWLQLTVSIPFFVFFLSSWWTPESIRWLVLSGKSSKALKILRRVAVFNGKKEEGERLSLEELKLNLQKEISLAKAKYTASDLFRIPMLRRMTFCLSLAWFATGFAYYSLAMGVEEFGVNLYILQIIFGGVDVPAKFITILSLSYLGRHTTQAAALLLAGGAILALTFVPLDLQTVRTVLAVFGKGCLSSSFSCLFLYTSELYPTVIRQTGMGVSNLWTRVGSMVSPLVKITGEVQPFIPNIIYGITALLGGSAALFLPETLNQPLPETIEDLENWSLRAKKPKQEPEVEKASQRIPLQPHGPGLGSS
In words: Enalaprilat uptake kinetics in HEK293 cells overexpressing human OAT3. The data set is classed as in vitro ADME. Further details: expressed in transfected cells; gift of Prof; Dafang Zhong, Shanghai Institute of Materia Medica. The settings on record: OAT3-transfected HEK293, Supplementary Figure 1. The procedure: Human embryonic kidney 293 (HEK293) cells stably overexpressing human OAT1, OAT3, organic cation transporter 2 (OCT2), OATP1B1, OATP1B3 or OATP2B1 as well as empty vectors were generously provided by Professor Dafang Zhong, Shanghai Institute of Materia Medica, Chinese Academy of Sciences (Shanghai, China). Respective transport activities had been validated using specific probe substrates ([Zhong et al., 2014]). All cells were grown in DMEM supplemented with 10% FBS, at 37°C with 5% CO2 and 95% humidity.
Cells were seeded in 24-well plates at a density of 200,000 cells per well and cultured in high glucose DMEM for 48 h. On the third day and prior to the start of the uptake experiment, cells were washed thrice with pre-warmed HBSS and then incubated with HBSS for 30 min at 37°C. […] Incubations were terminated 5 min after the addition of substrate by washing with ice-cold HBSS. Cells were immediately lysed with 200 μl ultrapure water by repeated freezing and thawing up to three times. Intracellular drug concentrations were determined using a liquid chromatography - tandem mass spectrometry (LC-MS/MS) method. Cellular protein levels were estimated using the Bicinchoninine acid assay per manufacturer’s instruction (Takara, Japan).
Kinetic parameters of transporter-mediated uptake were estimated by nonlinear regression analysis using GraphPad Prism 5.01 (La Jolla, CA, USA). […]
With `CCOC(=O)[C@H](CCc1ccccc1)N[C@@H](C)C(=O)N1CCC[C@H]1C(=O)O` [Enalapril], the “Transport by OAT3 (substrate status)” value is reported as “could also be transported by OAT3”.

A further data set concerns the target T1, human OAT3. The experiment in a line: Inhibition of OAT3-mediated enalaprilat uptake in OAT3-transfected HEK293 cells.
Conditions: not given
The method, then:
Because the present study examined a number of compounds with structural diversity, a 30 min preincubation was carried out for all compounds in order to eliminate inconsistencies. […] OAT3-transfected HEK293 cells or mock cells were washed thrice with pre-warmed HBSS and preincubated with HBSS containing different concentrations of inhibitors for 30 min at 37°C.
For sample preparation before analysis, 100 μl acetonitrile containing 500 nM tolbutamide (internal standard, IS) was added as a protein-precipitating agent to 50-μl cell samples. All samples were vortexed for 2 min and centrifuged at 13,000 rpm for 10 min. Ten microliters of the supernatants were transferred into injection vials for concentration determination.
The LC-MS/MS system consisted of an API 4000 Qtrap mass spectrometer equipped with a turbo-V ionization source (Applied Biosystems, Foster City, CA, USA), two LC-20AD pumps with a CBM-20A controller, a DGU-20A solvent degasser, and a SIL-20A autosampler (Shimadzu, Columbia, MD, USA). A reverse phase C18 column (50×2.1 mm, 5 µm particle size; Agela, China) and a gradient elution at 0.3 ml/min were employed for chromatographic separation. […] Analyst 1.6.3 (AB SCIEX, USA) was used to collect and process the data.
where I was the inhibitor concentration.
`O=c1cc(-c2ccc(O)cc2)oc2cc(O)cc(O)c12` [Apigenin] showed an IC50 of 0.33 ± 0.09 µM. `O=c1cc(-c2ccc(O)cc2)oc2cc(O[C@@H]3O[C@H](CO)[C@@H](O)[C@H](O)[C@H]3O)cc(O)c12` [Apigetrin]: the IC50 worked out at 7.8 ± 4.03 µM. The compound `O=c1cc(-c2ccccc2)oc2cc(O)cc(O)c12` [Chrysin] came in with an IC50 of 0.044 ± 0.013 µM. Take `O=c1c(-c2ccc(O)cc2)coc2cc(O)ccc12` [Daidzein]: the IC50 worked out at 5.8 ± 3.96 µM. This IC50 lies about 130-fold higher than the previous one. Still for that read-out and setting: to `O=C1C[C@@H](c2ccc(O)c(O)c2)Oc2cc(O)cc(O)c21` [Eriodictyol] belongs 1.48 ± 0.6 µM; to `O=c1c(O)c(-c2ccc(O)c(O)c2)oc2cc(O)ccc12` [Fisetin], 3.82 ± 1.6 µM. Turning to `O=c1c(O)c(-c2ccccc2)oc2cc(O)cc(O)c12` [Galangin], the IC50 worked out at 0.03 ± 0.026 µM. Still for that read-out and setting: as for `O=c1c(O)c(-c2ccc(O)c(O)c2)oc2c(O)c(O)cc(O)c12` [Gossypetin], the figure is 0.71 ± 0.08 µM. For the compound `O=c1c(O[C@@H]2O[C@H](CO)[C@@H](O)[C@H](O)[C@H]2O)c(-c2ccc(O)c(O)c2)oc2cc(O)cc(O)c12` [Isoquercetin], the IC50 came to 11.7 ± 2.06 µM.

As to `O=c1c(O)c(-c2ccc(O)cc2)oc2cc(O)cc(O)c12` [Kaempferol], the IC50 turned out to be 0.088 ± 0.014 µM.

As for `O=c1cc(-c2ccc(O)c(O)c2)oc2cc(O)cc(O)c12` [Luteolin], the half-maximal inhibitory concentration (IC50) was determined as 0.66 ± 0.11 µM. Turning to `CC(C)=CCc1c(-c2ccc(O)cc2O)oc2c(CC=C(C)C)c(O)cc(O)c2c1=O` [Mulberrin], the IC50 was 1.22 ± 0.18 µM. In turn, `O=c1c(O)c(-c2cc(O)c(O)c(O)c2)oc2cc(O)cc(O)c12` [Myricetin] came in with an IC50 of 22.6 ± 6.86 µM. The compound `COc1c(O)cc2oc(-c3ccccc3)cc(=O)c2c1O` [Oroxylin A] displayed an IC50 of 0.22 ± 0.12 µM. `O=c1c(O)c(-c2ccc(O)c(O)c2)oc2cc(O)cc(O)c12` [Quercetin] yielded an IC50 of 0.75 ± 0.37 µM. `O=C1c2c(O)cc(O)cc2OC(c2ccc(O)c(O)c2)C1O` (stereo not shown) [Taxifolin] showed a half-maximal inhibitory concentration (IC50) of 7.02 ± 3.37 µM. Compound `COc1c(O)cc(O)c2c(=O)cc(-c3ccccc3)oc12` [Wogonin] yielded an IC50 of 0.24 ± 0.04 µM. This IC50 is about 29-fold lower than that of the compound before. On to `COc1c(O[C@@H]2O[C@H](C(=O)O)[C@@H](O)[C@H](O)[C@H]2O)cc(O)c2c(=O)cc(-c3ccccc3)oc12` [Wogonoside], for which the IC50 was determined as 11.7 ± 6.29 µM.

Staying with this data set, now noted: IC50, inhibition of enalaprilat uptake by selected drugs, HEK293-OAT3, enalaprilat 30 µM, 30 min preincubation, mean ± sd of three incubations.
For the compound `CCc1oc2ccccc2c1C(=O)c1cc(Br)c(O)c(Br)c1` [Benzbromarone], the IC50 was 0.14 µM and < 1 µM. As for `Cc1nc(-c2ccc(OCC(C)C)c(C#N)c2)sc1C(=O)O` [Febuxostat], the IC50 came to 0.41 ± 0.05 µM. Same read-out and setting: to `Cc1ccc(C)c(OCCCC(C)(C)C(=O)O)c1` [Gemfibrozil] belongs 3.5 ± 0.51 µM. As for `CCC1=C(C)CN(C(=O)NCCc2ccc(S(=O)(=O)NC(=O)N[C@H]3CC[C@H](C)CC3)cc2)C1=O` [Glimepiride], the IC50 amounted to 0.37 ± 0.04 µM.

On to `O=C(O)CSc1nnc(Br)n1-c1ccc(C2CC2)c2ccccc12` [Lesinurad], for which the IC50 was 0.8 µM and < 1 µM. Consider `CCOc1cc(CC(=O)N[C@@H](CC(C)C)c2ccccc2N2CCCCC2)ccc1C(=O)O` [Repaglinide], for which the IC50 was 2.1 ± 0.31 µM. With `O=C1C(CC[S+]([O-])c2ccccc2)C(=O)N(c2ccccc2)N1c1ccccc1` (stereo not shown) [Sulfinpyrazone], the IC50 is 0.95 ± 0.37 µM.

Regarding `CCCc1nc2c(C)cc(-c3nc4ccccc4n3C)cc2n1Cc1ccc(-c2ccccc2C(=O)O)cc1` [Telmisartan], the IC50 worked out at 0.86 ± 0.22 µM.

In turn, `CCCCC(=O)N(Cc1ccc(-c2ccccc2-c2nnn[nH]2)cc1)[C@H](C(=O)O)C(C)C` [Valsartan] gave an IC50 of 0.9 ± 0.09 µM. Same read-out and setting: as for `CC(C)(Sc1ccncc1-c1ccc(C#N)c2ccccc12)C(=O)O` [Verinurad], the figure is 0.8 µM and < 1 µM.

A further data set deals with OAT4.
Assay: not given
Details: method as in Tan et al., 2017. The settings on record: ref Tan et al., 2017; cited from earlier work.
As for `CC(C)(Sc1ccncc1-c1ccc(C#N)c2ccccc12)C(=O)O` [Verinurad], the “Affinity for OAT4, fold lower as compared to URAT1” value is “approximately 200 fold”.

A further data set has as its system OAT1.
Assay: not given
Further details: method as in Tan et al., 2017. The settings on record: ref Tan et al., 2017; cited from earlier work.
`CC(C)(Sc1ccncc1-c1ccc(C#N)c2ccccc12)C(=O)O` [Verinurad]: the “Affinity for OAT1, fold lower as compared to URAT1” value was “approximately 200 fold”.
